Measured values from US20230041563A1, “N-(1,3,4-OXADIAZOL-2-YL)ARYLCARBOXAMIDES OR SALTS THEREOF, PREPARATION METHODS, HERBICIDAL COMPOSITIONS AND USES THEREOF” (priority 2018, published 2023).

Columns and labels:
Test in all cases: Weeding effect in post-emergence stage (greenhouse pot spray)
Type in all cases: in vivo
[1] = test system: Abutilon theophrasti; conditions: Table 2, dose 500 g a.i./ha
Outline: (§1)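 Read-out: fresh-weight growth control rate scored 3 weeks after spraying, mean of three replicates. Plants treated at 2-3 leaf stage by spray tower, doses 500-15 g a.i./ha (500, 250, 125, 60, 15).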

[2] = test system: Echinochloa crusgalli; conditions: for Echinochloa crusgah (activity level): Table 2, dose 500 g a.i./ha
Outline: as §1

[3] = test system: Digitaria sanguinalis; conditions: for Digitaria sanguinalis (activity level): Table 2, dose 500 g a.i./ha
Outline: as §1

[4] = test system: Stellaria media; conditions: Table 2, dose 500 g a.i./ha
Description: (§2) The activity level criteria for plant damage (i.e., growth control rate) are as follows:
(§3) The above growth control rates are fresh weight control rates.
(§4) Experiment on weeding effect in post-emergence stage: monocotyledonous and dicotyledonous weed seeds (Descurainia sophia, Capsella bursa-pastoris, Abutilon theophrasti, Galium aparine, Stellaria media, Lithospermum arvense, rorippa indica, Alopecurus aequalis, Beckmannia syzigachne, Sclerochloa dura, Phleum paniculatum, Bromus japonicus, Aegilops tauschii, Phalaris arundinacea, Amaranthus retroflexus, Chenopodiaceae, Commelina communis, Sonchus arvensis, convolvulus arvensis, Cirsium setosum, Solanum nigrum, Acalypha australis, Digitaria sanguinalis, Echinochloa crusgalli, Setaria viridis, Setaria glauca, Leptochloa chinensis, Monochoria vaginalis, Sagittaria trifolia, Scirpus juncoides, Cyperus rotundus, Cyperus iria, Cyperus difformis, Fimbristylis, Portulaca oleracea, Xanthium sibiricum, Pharbitis nil) and major crop seeds (wheat, corn, rice, soybean, cotton, oilseed rape, millet, sorghum, potato, sesame, ricinus) were placed in plastic pots filled with soil, then covered with 0.5-2 cm of soil, allowed to grow in a good greenhouse environment. After 2 weeks of sowing, the test plants were treated in the 2 to 3 leaf stage. The tested compounds of the present invention were respectively dissolved in acetone, then added with Tween 80 and 1.5 liter/ha of emulsifiable concentrate of methyl oleate as synergist, diluted with a certain amount of water to obtain a solution with a certain concentration, and sprayed with a spray tower onto the plants. After the application, the plants were cultured for 3 weeks in the greenhouse, and then the experimental results of the weeding were counted. The doses of the used compounds were 500, 250, 125, 60, 15 g a.i./ha, and the averages were obtained by repeating for three times.

[5] = test system: Amaranthus retroflexus; conditions: Table 2, dose 500 g a.i./ha
Description: as §2, §3, §4

[6] = test system: Setaria viridis; conditions: Table 3, dose 250 g a.i./ha
Outline: as §1

SMILES	Abutilion theophrasti (activity level) [1]	Echinochloa crusgah (activity level) [2]	Digitaria sanguinalis (activity level) [3]	Stellaria media (activity level) [4]	Amaranthus retroflexus (activity level) [5]	Setaria viridis (activity level) [6]	Echinochloa crusgali (activity level) ([2]; Table 3, dose 250 g a.i./ha)	Digitaria sanguinahs (activity level) ([3]; Table 3, dose 250 g a.i./ha)
CCSc1c(C(F)(F)F)ccc(C(=O)Nc2nnc(CC)o2)c1F [Compound 2-4]	5 (Level 5: growth control rate is above 85%)	5 (Level 5: growth control rate is above 85%)	5 (Level 5: growth control rate is above 85%)	5 (Level 5: growth control rate is above 85%)	5 (Level 5: growth control rate is above 85%)	–	–	–
CCSc1c(C(F)(F)F)ccc(C(=O)Nc2nnco2)c1F [Compound 3-4]	5 (Level 5: growth control rate is above 85%)	5 (Level 5: growth control rate is above 85%)	5 (Level 5: growth control rate is above 85%)	5 (Level 5: growth control rate is above 85%)	5 (Level 5: growth control rate is above 85%)	5 (Level 5: growth control rate is above 85%)	5 (Level 5: growth control rate is above 85%)	5 (Level 5: growth control rate is above 85%)
CC[S+]([O-])c1c(C(F)(F)F)ccc(C(=O)Nc2nnco2)c1F (stereo not drawn) [Compound 3-5]	5 (Level 5: growth control rate is above 85%)	5 (Level 5: growth control rate is above 85%)	5 (Level 5: growth control rate is above 85%)	5 (Level 5: growth control rate is above 85%)	5 (Level 5: growth control rate is above 85%)	–	–	–
CCC[S+]([O-])c1c(C(F)(F)F)ccc(C(=O)Nc2nnco2)c1F (stereo not drawn) [Compound 3-8]	5 (Level 5: growth control rate is above 85%)	5 (Level 5: growth control rate is above 85%)	5 (Level 5: growth control rate is above 85%)	5 (Level 5: growth control rate is above 85%)	5 (Level 5: growth control rate is above 85%)	–	–	–
CC(C)[S+]([O-])c1c(C(F)(F)F)ccc(C(=O)Nc2nnco2)c1F (stereo not drawn) [Compound 3-11]	5 (Level 5: growth control rate is above 85%)	5 (Level 5: growth control rate is above 85%)	5 (Level 5: growth control rate is above 85%)	5 (Level 5: growth control rate is above 85%)	5 (Level 5: growth control rate is above 85%)	–	–	–
CCCC[S+]([O-])c1c(C(F)(F)F)ccc(C(=O)Nc2nnco2)c1F (stereo not drawn) [Compound 3-14]	5 (Level 5: growth control rate is above 85%)	5 (Level 5: growth control rate is above 85%)	5 (Level 5: growth control rate is above 85%)	5 (Level 5: growth control rate is above 85%)	5 (Level 5: growth control rate is above 85%)	–	–	–
CCC(C)[S+]([O-])c1c(C(F)(F)F)ccc(C(=O)Nc2nnco2)c1F (stereo not drawn) [Compound 3-17]	5 (Level 5: growth control rate is above 85%)	5 (Level 5: growth control rate is above 85%)	5 (Level 5: growth control rate is above 85%)	5 (Level 5: growth control rate is above 85%)	5 (Level 5: growth control rate is above 85%)	–	–	–
O=C(Nc1nnco1)c1ccc(C(F)(F)F)c([S+]([O-])CCC(F)(F)F)c1F (stereo not drawn) [Compound 3-52]	5 (Level 5: growth control rate is above 85%)	5 (Level 5: growth control rate is above 85%)	5 (Level 5: growth control rate is above 85%)	5 (Level 5: growth control rate is above 85%)	5 (Level 5: growth control rate is above 85%)	–	–	–
COCC[S+]([O-])c1c(C(F)(F)F)ccc(C(=O)Nc2nnco2)c1F (stereo not drawn) [Compound 3-57]	5 (Level 5: growth control rate is above 85%)	5 (Level 5: growth control rate is above 85%)	5 (Level 5: growth control rate is above 85%)	5 (Level 5: growth control rate is above 85%)	5 (Level 5: growth control rate is above 85%)	–	–	–
